The results in this text go back to patent US11440906B2, “Biguanide derivatives and their rearrangement products for use in the treatment of cancer” (CENTRE NATIONAL DE LA RECHERCHE SCIENTIFIQUE, priority 2017, dated 2022).

Each structure is given as a SMILES string. Like-named read-outs stand apart in the source and are kept apart here.

For the assay, the system named is A375 Sensitive cells. Nature of the assay: Viability test, trypan blue exclusion, A375 Sensitive cells. The format is cell-based, human. The following applies: Homo sapiens, A-375, viable cells as percentage of DMSO control. From the text: Different melanoma cell lines were purchased from the American Tissue Culture Collection: A375 and WM9 cells are mutated on B-Raf, CDKN2A and PTEN proteins; SKmel28 cells are mutated on B-Raf and P53 proteins; 1205Lu cells are mutated on B-Raf and PTEN proteins; G-361 cells are mutated on B-Raf and CDKN2A proteins; C8161 cells are mutated on B-Raf and K-Ras proteins; WM3912 cells are mutated on B-Raf and CDKN2A proteins; MeWo cells are mutated on P53 and CDKN2A proteins; WM3918 presents no mutations on characteristic proteins.
For trypan blue staining, […] of cells (melanoma and normal human cells) were aseptically transferred to a 1.5 mL clear Eppendorf tube and incubated for 3 min at room temperature with an equal volume of 0.4% trypan blue solution. Viable cells were counted and the results are expressed as the percentage of the value of control cells. All the experiments are performed 3 times in triplicate.
A375 Sensitive cells were treated with different concentrations of the synthesized molecules (5.0 μM or 10 μM) for different times (24 hr or 48 hr) or with DMSO (Control) for 12 or 48 hr. At the end of the stimulation, viable cells were counted using the trypan blue dye exclusion method. The results are normalized as percentages compare to the control.
A375 Sensitive cells were treated with 5 μM of CRO15 for different times (2 hr, 4 hr, 6 hr, 8 hr, 12 hr, 24 hr or 48 hr) or with 5 μM of PLX4032 (B-Raf inhibitor) for 48 hr or with DMSO (Control) for 48 hr. At the end of stimulation, viable cells were counted using the trypan blue dye exclusion method. The results are normalized as percentages compare to the control and data means±SEM of three independent experiments performed in triplicate *p<0.05; **p<0.01; ***p<0.001.
A375 Sensitive cells were treated with different concentrations of CRO15 (0.5 μM, 2.5 μM, 5.0 μM, 7.5 μM, 50 μM) for 48 hr or with 5 μM of PLX4032 (B-Raf inhibitor) for 48 hr or with DMSO (Control) for 48 hr. At the end of the stimulation, viable cells were counted using the trypan blue dye exclusion method. The results are normalized as percentages compare to the control and data means±SEM of three independent experiments performed in triplicate *p<0.05; **p<0.01; ***p<0.001.
A375 sensitive and resistant melanoma cells were treated with 5 μM of CRO15 for 48 hr or with 5 μM of PLX4032 for 48 hr or with DMSO (Control). At 48 hours, viable cells were counted using the trypan blue dye exclusion method. The results are normalized as percentages compare to the control and data means±SEM of three independent experiments performed in triplicate *p<0.05; **p<0.01; ***p<0.001.

Where [1] appears, read: 24 h, read-out: Viab A375 5 μM/ 24 h.
The mark [2] stands for this setting: 48 h, read-out: Viab A375 5 μM/ 48 h.
The mark [3] stands for this setting: 24 h, read-out: Viab A375 10 μM/ 24 h.
Where [4] appears, read: 48 h, read-out: Viab A375 10 μM/ 48 h.

For `N=C(NC(=N)c1ccncc1)Nc1nc2ccccc2s1` [MTF 253, N—(N-(benzo[d]thiazol-2-yl)carbamimidoyl)isonicotinimidamide], the viability at 5 µM is, setting by setting: under setting [1], 27.8%; under setting [2], 6.9%. For the same molecule, the viability at 10 µM runs as follows: under setting [3], 14.9%; under setting [4], 4.1%.
Consider `N=C(NC(=N)c1ccncc1)Nc1nc(-c2cccc([N+](=O)[O-])c2)cs1` [MTF 261, N—(N-(4-(3-nitrophenyl)thiazol-2-yl)carbamimidoyl)isonicotinimidamide], for which the viability at 5 µM runs as follows: under setting [1], 24.6%; under setting [2], 63.6%. The viability at 10 µM stood at 71.9% under setting [3] and 115% under setting [4].
Consider `N=C(NC(=N)c1ccccc1F)Nc1nc2ccccc2s1` [MTF 249, N—(N-(benzo[d]thiazol-2-yl)carbamimidoyl)-2-fluorobenzimidamide], for which the viability at 5 µM under setting [1] is 25.4% and the viability at 5 µM under setting [2] amounted to 10.6%. Moreover, the viability at 10 µM was 14.4% under setting [3] and 8.9% under setting [4].
The like results for `CSc1ccccc1Nc1nc(N)nc(C(Cl)(Cl)Cl)n1` [MTF 316, N2-(2-(methylthio)phenyl)-6-(trichloromethyl)-1,3,5-triazine-2,4-diamine] were, in that order, 124%, 69.6%, 104% and 48.2%.
In the case of `COc1ccc2nc(NC(=N)NC(=N)c3cccc(Br)c3)sc2c1` [MTF 264, 3-bromo-N—(N-(6-methoxybenzo[d]thiazol-2-yl)carbamimidoyl)benzimidamide], the viability at 5 µM under setting [1] worked out at 87%. Moreover, the viability at 10 µM under setting [3] came out at 89% and the viability at 10 µM under setting [4] came to 99%.
As to `Nc1nc(Nc2ccccc2SSc2ccccc2Nc2nc(N)nc(-c3cccc(F)c3)n2)nc(-c2cccc(F)c2)n1` [MTF 320], the viability at 5 µM was 18.3% under setting [1] and 11.5% under setting [2]. The viability at 10 µM was found to be 10.8% under setting [3] and 8.5% under setting [4].
Regarding `Nc1nc(Nc2ccccc2SSc2ccccc2Nc2nc(N)nc(-c3cccnc3)n2)nc(-c2cccnc2)n1` [MTF 330, N2,N2′-(disulfanediylbis(2,1-phenylene))bis(6-(pyridin-3-yl)-1,3,5-triazine-2,4-diamine)], the viability at 5 µM worked out at 123% under setting [1] and 73.9% under setting [2]. Besides, the viability at 10 µM is 60.1% under setting [3] and 41.6% under setting [4].
Turning to `Nc1nc(Nc2ccccc2SSc2ccccc2Nc2nc(N)nc(-c3ccc4c(c3)OCO4)n2)nc(-c2ccc3c(c2)OCO3)n1` [MTF 449, N2,N2′-(disulfanediylbis(2,1-phenylene))bis(6-(benzo[d][1,3]dioxol-5-yl)-1,3,5-triazine-2,4-diamine)], the viability at 5 µM under setting [1] came out at 74.2% and the viability at 5 µM under setting [2] worked out at 67.8%. For the same molecule, the viability at 10 µM reads like this: under setting [3], 59.1%; under setting [4], 53%.
The like results for `Nc1nc(Nc2ccccc2SSc2ccccc2Nc2nc(N)nc(-c3ccccc3Cl)n2)nc(-c2ccccc2Cl)n1` [MTF 450, N2,N2′-(disulfanediylbis(2,1-phenylene))bis(6-(2-chlorophenyl)-1,3,5-triazine-2,4-diamine)] were, in that order, 38.6%, 54.8%, 38.3% and 49.9%.
Turning to `Cc1nc(NC(=N)NC(=N)c2ccccc2)sc1C` [MTF 303, N—(N-(4,5-dimethylthiazol-2-yl)carbamimidoyl)benzimidamide], the viability at 5 µM under setting [1] came out at 85.6% and the viability at 5 µM under setting [2] was found to be 44.2%. Also, the viability at 10 µM runs as follows: under setting [3], 66.1%; under setting [4], 39.1%.
The like results for `Nc1nc(Nc2ccccc2SSc2ccccc2Nc2nc(N)nc(-c3ccncc3)n2)nc(-c2ccncc2)n1` [MTF 329, N2,N2′-(disulfanediylbis(2,1-phenylene))bis(6-(pyridin-4-yl)-1,3,5-triazine-2,4-diamine)] were, in that order, 96.2%, 69.7%, 74.2% and 22.5%.
The like results for `Cc1csc(NC(=N)NC(=N)c2ccccc2Br)n1` [MTF 287, 2-bromo-N—(N-(4-methylthiazol-2-yl)carbamimidoyl)benzimidamide] were, in that order, 60.9%, 86.7%, 53.7% and 69.5%.
With `Cc1nc(NC(=N)NC(=N)c2ccc(Cl)cc2)sc1C` [MTF 302, 4-chloro-N—(N-(4,5-dimethylthiazol-2-yl)carbamimidoyl)benzimidamide], the viability at 5 µM reads like this: under setting [1], 105%; under setting [2], 52.3%. Besides, the viability at 10 µM reads like this: under setting [3], 94.8%; under setting [4], 39.3%.
Consider `Nc1nc(Nc2cc([N+](=O)[O-])ccc2O)nc(C(Cl)(Cl)Cl)n1` [MTF 377, 2-((4-amino-6-(trichloromethyl)-1,3,5-triazin-2-yl)amino)-4-nitrophenol], for which the viability at 5 µM came out at 27.3% under setting [1] and 34.4% under setting [2]. The viability at 10 µM by setting is: under setting [3], 22.7%; under setting [4], 33.5%.
With `Nc1nc(Nc2ccccc2SSc2ccccc2Nc2nc(N)nc(-c3c(Cl)cccc3Cl)n2)nc(-c2c(Cl)cccc2Cl)n1` [MTF 455, N2,N2′-(disulfanediylbis(2,1-phenylene))bis(6-(2,6-dichlorophenyl)-1,3,5-triazine-2,4-diamine)], the viability at 5 µM was 89% under setting [1] and 108% under setting [2]. Besides, the viability at 10 µM is 32.3% under setting [3] and 69.5% under setting [4].
Regarding `N=C(NC(=N)c1ccc(Cl)cc1)Nc1nc(-c2cccc([N+](=O)[O-])c2)cs1` [MTF 281, 4-chloro-N—(N-(4-(3-nitrophenyl)thiazol-2-yl)carbamimidoyl)benzimidamide], the viability at 5 µM was determined as 79% under setting [1] and 112% under setting [2]. Besides, the viability at 10 µM was found to be 57.4% under setting [3] and 78% under setting [4].
`CSc1ccccc1Nc1nc(N)nc(C(Cl)Cl)n1` [MTF 317, 6-(dichloromethyl)-N2-(2-(methylthio)phenyl)-1,3,5-triazine-2,4-diamine]: the viability at 5 µM is, setting by setting: under setting [1], 106%; under setting [2], 58.7%. In addition, the viability at 10 µM runs as follows: under setting [3], 109%; under setting [4], 70%.
The like results for `Cc1ccc2nc(NC(=N)NC(=N)c3cccc(Br)c3)sc2c1` [MTF 265, 3-bromo-N—(N-(6-methylbenzo[d]thiazol-2-yl)carbamimidoyl)benzimidamide] were, in that order, 91%, 100%, 84% and 60%.
On to `Cc1csc(NC(=N)NC(=N)c2cccnc2)n1` [MTF 290, N—(N-(4-methylthiazol-2-yl)carbamimidoyl)nicotinimidamide], for which the viability at 5 µM under setting [1] worked out at 43.4% and the viability at 5 µM under setting [2] turned out to be 21.6%. The viability at 10 µM runs as follows: under setting [3], 50.5%; under setting [4], 14.4%.
Take `COc1cccc(-c2nc(N)nc(Nc3ccccc3SSc3ccccc3Nc3nc(N)nc(-c4cccc(OC)c4)n3)n2)c1` [MTF 318]: the viability at 5 µM is 74.1% under setting [1] and 21.6% under setting [2]. The viability at 10 µM under setting [3] was determined as 20.5% and the viability at 10 µM under setting [4] was 6.3%.
As for `Nc1nc(Nc2ccccc2O)nc(-c2cccc(Br)c2)n1` [MTF 331, 2-((4-amino-6-(3-bromophenyl)-1,3,5-triazin-2-yl)amino)phenol], the viability at 5 µM runs as follows: under setting [1], 104%; under setting [2], 82.9%. In addition, the viability at 10 µM worked out at 151% under setting [3] and 77.4% under setting [4].
The like results for `N=C(NC(=N)c1cccc(Br)c1)Nc1nc(-c2cccc([N+](=O)[O-])c2)cs1` [MTF 257, 3-bromo-N—(N-(4-(3-nitrophenyl)thiazol-2-yl)carbamimidoyl)benzimidamide] were, in that order, 100%, 80.5%, 106% and 62%.
